Series [1] can be described thus: Pharmacokinetic evaluation in mice (plasma). Type of series: in vivo. The following applies: mouse, male CD-1 mice. Here is the method: Objective of assay: To study the in vivo pharmacokinetic properties of the compound of the present disclosure in mice.
Each assay compound was mixed with DMAC respectively, and vortexed for 2 minutes. The solution of the assay compound in DMAC was mixed and vortexed for 2 minutes to prepare a clear solution of 10 mg/mL. 0.0600 mL of 10 mg/mL solution was added to 0.300 mL of Solutol, and the mixture was vortexed for 2 minutes. Then 2.400 mL of normal saline was added, and the mixture was vortexed for 2 minutes to obtain a clear solution of 0.2 mg/mL, which was used for administration in PO group, 0.500 mL of the solution for administration in PO group was vortexed for 2 minutes, and 0.0500 mL of DMAC was added. The mixture was vortexed for 2 minutes, and then 0.0500 mL of solutol was added. The mixture was vortexed for 2 minutes, and finally 0.400 mL of normal saline was added. The mixture was vortexed for two minutes to give a clear solution of 0.1 mg/mL, which was filtered through a microporous membrane to give a solution for administration in injection (IV) group.
Four male CD-1 mice were divided into two groups. The animals in the first group were administered intravenously once at a dose of 0.5 mg/kg, wherein the vehicle was 10% DMAC/10% Solutol/80% normal saline, and the administration volume was 5 mL/kg. The animals in the second group were administered orally 2 mg/kg of the assay compound by oral gavage, wherein the oral vehicle was 10% DMAC/10% Solutol/80% normal saline, and the oral volume was 10 mL/kg. Whole blood was collected at 0.033 (IV injection only), 0.083, 0.25, 0.5, 1, 2, 4 and 12 hours post-dose. The whole blood was centrifuged at 3200 g at 2-8° C. for 10 min to obtain plasma. The concentration of the assay compound in plasma was determined by ILC/MS/MS method, and the pharmacokinetic parameters were calculated by Phoenix WinNonlin software.
The parameters have the following meanings: IV: intravenous injection; PO: oral administration; C0: initial plasma drug concentration; Cmax: maximum drug concentration in systemic circulation; Tmax: time required to reach Cmax; T1/2: half-life; Vdss: apparent volume of distribution; Cl: clearance rate; AUC0-last: area under the drug-time curve.

Series [2] addresses human gonadotropin-releasing hormone receptor (Homo sapiens (Human), UniProt P30968). Put plainly: FLIPR calcium flow assay of inhibitory activity on gonadotropin-releasing hormone receptor in GnRH/HEK293 cells. The settings on record: Ca2+ flow, agonist Leuprolide acetate, read-out: IC50 on inhibiting the activity of human gonadotropin-releasing hormone receptor. Type of series: cell-based. Here is the method:
Objective of assay: to detect the inhibitory activity of assay compounds on gonadotropin-releasing hormone receptor at the cellular level using FLIPR detection technology.
GnRH/HEK293 (human embryonic kidney cell 293) cultured cells in the logarithmic growth phase were washed with DPBS (Dulbecco's phosphate buffered saline) buffer, and an appropriate amount of 0.05% EDTA (ethylenediaminetetraacetic acid)-trypsin was added. The cells were placed in a carbon dioxide incubator at 37° C. for digestion for 1-2 minutes, and then removed from the incubator. A medium was added to the cells to terminate the digestion. Cells were dispersed by repeated pipetting and harvested by centrifugation. […]
On the next day, 20 μL, of 2×Fluo-4Direct™ buffer was added to each well, and the plate was incubated in a 5% CO2, 37° C. incubator for 50 minutes. […] The fluorescence signal was read. Then 10 μL of the reference compound as an agonist was added, and the fluorescent signal was read. EC50 was calculated, and the agonist with a concentration of 6×EC50 was prepared.
2 mM assay compounds and an appropriate concentration of reference compound were serially diluted 4-fold to 10 concentrations in ECHO, and 900 nL of that was transferred to a compound plate. […] The fluorescent signal was read. Then 10 μL of agonist with a concentration of 6×EC50 was added to the cell plate and the fluorescent signal was read. […]

Series [3] concerns endometriotic lesion in mice. Put plainly: In vivo efficacy evaluation in a mouse model of endometriosis. An excerpt: Objective of assay: To evaluate the efficacy of the compound of the present disclosure in a mouse model of endometriosis.
Animal estrous cycle detection in 8-week-old C57BL6/J female mice: Through vaginal smear observation, mice that met the specific estrous cycle on the day of the assay were selected according to the actual smear results because the entire estrous cycle was about 4 days. Modeling: The uterine horns of donor mice in an estrous cycle were excised, and opened longitudinally. The excised biopsies were cut to a size of 2×2 mm. Recipient mice were anesthetized with isoflurane gas, and a 1 cm incision was made along the midline to expose the abdominal cavity. Endometriotic mice: four uterine fragments of donors were sutured to the peritoneal wall of mice in an estrous cycle; sham-operated mice: abdominal fat fragments of similar size were sutured. The grafted tissue as well as the abdominal muscle and skin were sutured using 8-0 black silk thread. Sham group (sham-operation group): the abdominal cavity of each mouse in the Sham group was opened to transplant fat fragments, and the rest of the steps were the same.
After 4 weeks of modelmg, a second laparotomy was performed, and the ectopic lesion volume (V1) was measured using a vernier caliper and calculated to determine the success of the modeling. Twelve mice with relatively uniform V1 were selected and divided into 2 groups with 6 nice in each group: Vehicle (vehicle control group) and drug group.
Sham group (sham-operation group, 6 animals): normal feeding; Vehicle group (vehicle control group, 6 animals); vehicle was intragastrically administered once a day for 8 consecutive weeks. […]
After 8 weeks of administration, samples were obtained from the mice: the ectopic lesion volume (V2) was measured using a vernier caliper and calculated. The inhibition rate was calculated using a calculation formula of: ectopic lesion volume V=π/6×length×width×height, wherein length represents the length of an ectopic lesion, width represents the width of an ectopic lesion, and height represents the height of an ectopic lesion;

pIC50: −log10 of the molar value.

Chain of human gonadotropin-releasing hormone receptor (P30968 whole entry): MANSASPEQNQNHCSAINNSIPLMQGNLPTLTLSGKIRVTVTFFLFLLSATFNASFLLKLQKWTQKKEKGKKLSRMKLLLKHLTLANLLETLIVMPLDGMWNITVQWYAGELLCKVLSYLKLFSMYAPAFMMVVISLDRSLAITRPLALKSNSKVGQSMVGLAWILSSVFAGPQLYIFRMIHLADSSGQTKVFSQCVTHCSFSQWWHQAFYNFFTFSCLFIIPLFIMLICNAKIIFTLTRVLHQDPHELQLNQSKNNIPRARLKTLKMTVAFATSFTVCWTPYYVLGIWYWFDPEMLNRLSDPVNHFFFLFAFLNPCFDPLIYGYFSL

For `O=C(O)c1scc2[nH]c(=O)n(-c3cc4c(cc3F)OCCCOc3ccc(F)c(F)c3CO4)c(=O)c12` [Compound 1], in series [1] (IV 0.5 mg/kg), the AUC(0-t) (commonly exposure summed from dosing to a finite time, without extrapolation to infinity) was 48.3 µM·h; the C0 stood at 13.5 µM; the clearance (commonly a measure of how efficiently the substance is removed, as volume per time) amounted to 0.332 mL/min/kg; the half-life (commonly how long it takes for the measured level to halve) was 5.66 h. In addition, in series [1] (IV 0.5 mg/kg, read-out: Vdss), the Vd came to 0.159 L/kg. In series [1] (PO 2 mg/kg vs IV 0.5 mg/kg), the bioavailability (as a rule, dose-corrected exposure relative to a reference, in per cent) came out at 95.3%. Moreover, in series [1] (PO 2 mg/kg), the AUC(0-t) turned out to be 143 µM·h; the peak concentration (Cmax) – broadly, the peak of the concentration-time curve – stood at 25.8 µM; the Tmax (as a rule, the time at which the peak concentration occurs) is 0.5 h; the half-life is 5.03 h. The pIC50 (in general, −log10 of the IC50, conventionally taken in molar units) in series [2] is 8.49. For the same compound, the “Volume of endometriotic lesion in mice V1” value in series [3] (Mean ± SD, n = 6, 4 weeks after modeling, before administration (baseline)) came to 9.89 ± 1.51 mm^3. Besides, the “Volume of endometriotic lesion in mice V2” value in series [3] (Mean ± SD, n = 6, after 8 weeks of 100 mpk intragastric once daily) came to 6.78 ± 4.46 mm^3. Further, the Inhibition rate in series [3] (ectopic lesion volume, 100 mpk intragastric once daily for 8 weeks) came out at 107.5%.

The values are drawn from patent publication US20240158413A1, “FUSED POLYCYCLIC SUBSTITUTED 5-CARBOXYLIC ACID THIENOPYRIMIDINE DIONE COMPOUND AND USE THEREOF” (SOTER BIOPHARMA PTE. LTD., priority 2021, published 2024).
